From patent US20240390383A1, “DIOXAZINES AND THEIR USE IN TREATMENT OF GBA-RELATED DISEASES” (ZEVRA DENMARK A/S, priority 2021, published 2024)
Values joined by “and” are separate entries in the source; they are usually repeats but may differ in a detail not shown here. Equal entries are not always repeated.

Biological target: T1, GCase (GBA) in human fibroblast cell line GM10915 harboring the L444P GBA mutation (Homo sapiens, UniProt P04062, L483P)
T1 construct: Human fibroblast cell line GM10915 harboring the L444P GBA mutation; host or cells: GM10915 human fibroblasts
T1 sequence (P04062 40-536 L483P): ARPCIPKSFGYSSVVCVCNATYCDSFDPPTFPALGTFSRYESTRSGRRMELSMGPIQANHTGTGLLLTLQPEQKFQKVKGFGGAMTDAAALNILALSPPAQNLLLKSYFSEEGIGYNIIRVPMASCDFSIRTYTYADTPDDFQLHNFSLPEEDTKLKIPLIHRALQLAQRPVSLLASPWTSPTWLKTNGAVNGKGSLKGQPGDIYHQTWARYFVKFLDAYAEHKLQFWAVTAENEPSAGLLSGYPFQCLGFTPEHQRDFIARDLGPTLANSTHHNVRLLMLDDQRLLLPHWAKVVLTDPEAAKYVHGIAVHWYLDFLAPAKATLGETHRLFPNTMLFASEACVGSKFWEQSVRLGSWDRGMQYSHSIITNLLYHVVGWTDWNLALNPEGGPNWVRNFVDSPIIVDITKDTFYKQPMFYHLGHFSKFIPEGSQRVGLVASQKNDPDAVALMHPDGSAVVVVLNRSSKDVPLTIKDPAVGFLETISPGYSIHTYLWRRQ
Experiment: GCase activity assay (4-MUG substrate, normalised to crystal violet staining) in L444P GBA fibroblasts
Format: cell-based
Details: 5 days exposure; for GBA EC1.5: concentration giving 150% GCase activity (1.5-fold induction), 8-point dose range
Outline: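 Patient fibroblasts GM10915 (L444P GBA) exposed to compounds for five days over an 8-point range, with fresh dosing every 2–3 days. Intact-cell GCase measured with 2.5 mM 4-MUG at pH 4.0 for 23 h at 37 °C (ex/em 365/445 nm), normalised to crystal violet, as % of PBS basal; Emax is the maximum reached.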

[1] = maximum percent GCase activity relative to untreated cells in the dose range tested

Structure (SMILES) | GBA EC1.5 | GBA Emax [1] | Emax [1] [%]
C1CCN(C[C@@H]2CON=C([C@]34CCC[C@H]3NCC4)O2)CC1 (single isomer, unassigned) [compound 590] | 4 µM and 3 µM | 211% and 273% | 
C1CCN(CC2CON=C([C@@]34CN[C@@H](CO3)C4)O2)CC1 (mixture of isomers) [compound 490, rac-(1R,4R)-1-(5-(piperidin-1-ylmethyl)-5,6-dihydro-1,4,2-dioxazin-3-yl)-2-oxa-5-azabicyclo[2.2.1]heptane] | 11 µM |  | 215
C[C@@]1(C2=NOC[C@@H](CN3CCCCC3)O2)CCCNC1 [compound 883] | 7 µM |  | 201
COC1(C2=NOCC(CN3CCCCC3)O2)CCNC1 (racemic) [compound 606, rac-3-(3-methoxypyrrolidin-3-yl)-5-(piperidin-1-ylmethyl)-5,6-dihydro-1,4,2-dioxazine] | 20 µM |  | 292
C1CCN(CC2CON=C([C@]34CNC[C@H]3COC4)O2)CC1 (relative stereo) [compound 494, rac-rel-trans-(3aR,6aR)-3a-(5-(piperidin-1-ylmethyl)-5,6-dihydro-1,4,2-dioxazin-3-yl)hexahydro-1H-furo[3,4-c]pyrrole] | 18 µM |  | 307
C1CCN(CC2CON=C(C34CCCNCC3C4)O2)CC1 (racemic) [compound 519, rac-3-(3-azabicyclo[5.1.0]octan-7-yl)-5-(piperidin-1-ylmethyl)-5,6-dihydro-1,4,2-dioxazine] | 40 µM |  | 159
C1CCN(CC2CON=C([C@]34CNC[C@H]3CCOC4)O2)CC1 (relative stereo) [compound 461, rac-rel-trans-(3aR,7aR)-3a-(5-(piperidin-1-ylmethyl)-5,6-dihydro-1,4,2-dioxazin-3-yl)octahydropyrano[3,4-c]pyrrole] | 19 µM |  | 203

The remaining lines, values ahead:

GBA EC1.5 | GBA Emax [1] | Emax [1] [%] | Structure (SMILES)
22 µM |  | 178 | CC(C)N1CCCC(C2=NOCC(CN3CCCCC3)O2)C1 (racemic) [compound 709, rac-3-(1-isopropylpiperidin-3-yl)-5-(piperidin-1-ylmethyl)-5,6-dihydro-1,4,2-dioxazine]
38 µM |  | 203 | NCC(=O)N1CCC(C2=NOCC(CN3CCCCC3)O2)C1 (racemic) [compound 699, rac-2-amino-1-(3-(5-(piperidin-1-ylmethyl)-5,6-dihydro-1,4,2-dioxazin-3-yl)pyrrolidin-1-yl)ethan-1-one]
50 µM |  | 106 | c1ccc(N2CCC(C3=NOCC(CN4CCCCC4)O3)CC2)nc1 (stereo not drawn) [compound 678]
50 µM |  | 119 | OC1CCC(C2=NOCC(CN3CCCCC3)O2)CC1 (stereo not drawn) [compound 609]
50 µM |  | 104 | N[C@H]1CN[C@@H](C2=NOCC(CN3CCCCC3)O2)C1 (stereo partly drawn) [compound 564]
50 µM |  | 107 | NC(=O)N1CCC(C2=NOCC(CN3CCCCC3)O2)C1 (stereo not drawn) [compound 697]
5 µM |  | 226 | C[C@@H]1CC(C2=NOCC(CN3CCCCC3)O2)C[C@H](C)N1 (mixture of isomers) [compound 633, rac-3-((2R,6S)-2,6-dimethylpiperidin-4-yl)-5-(piperidin-1-ylmethyl)-5,6-dihydro-1,4,2-dioxazine]
50 µM |  | 116 | c1cnc(N2CCC(C3=NOCC(CN4CCCCC4)O3)CC2)nc1 (stereo not drawn) [compound 658]
